Converted amounts (≈) assume the structure as drawn.
Experiments:
[1] = Antiviral activity against Influenza A virus (A/California/07/2009(H1N1) infected in MDCK cell line assessed as reduction of virus induced cytopathic effect by visual assay; assay type: functional, cell-based
[2] = Selectivity index, ratio of CC50 for MDCK cells by visual method to EC50 for Influenza A virus (A/California/07/2009(H1N1) virus by visual method; assay type: toxicity, cell-based; details: dog, read-out: Ratio CC50/EC50
[3] = Selectivity index, ratio of CC50 for MDCK cells by neutral red method to EC50 for Influenza A virus (A/California/07/2009(H1N1) virus by neutral red method; assay type: toxicity, cell-based; details: dog, read-out: Ratio CC50/EC50
[4] = Antiviral activity against Influenza A virus (A/California/07/2009(H1N1)) infected in MDCK cell line assessed as reduction of virus induced cytopathic effect by neutral red assay; assay type: functional, cell-based
[5] = Cytotoxicity against MDCK cells assessed as cell viability by visual assay; assay type: cell-based, Canis lupus familiaris; details: dog
[6] = Cytotoxicity against MDCK cells assessed as cell viability by neutral red assay; assay type: cell-based, Canis lupus familiaris; details: dog
[7] = Cytotoxicity against human Huh/NeoET cells assessed as cell viability by cytoTox1 cell proliferation assay; assay type: cell-based
[8] = Selectivity index, ratio of CC50 for luciferase expressing Huh/NeoET cells to EC50 for Hepatitis C virus 1b CON1; assay type: toxicity, cell-based; details: human, read-out: Ratio CC50/EC50
Hepatitis C virus [9] = assay: Antiviral activity against Hepatitis C virus 1b CON1 infected in human Huh/NeoET cells expressing luciferase assessed as reduction of virus induced cytopathic effect by luciferse reporter assay; assay type: functional, cell-based, Hepacivirus hominis; details: genotype 1b Con1, Huh/NeoET
Hepatitis C virus [10] = assay: Antiviral activity against HCV 1a H77 infected in human Huh7.5 cells assessed as reduction of virus induced cytopathic effect by qRT-PCR; assay type: functional, cell-based, Hepacivirus hominis; details: genotype 1a H77, Huh-7
[11] = Selectivity index, ratio of CC50 for human HuH7 cells to EC50 for HCV 2a (JFH1); parameters: species or system Huh-7
Hepatitis C virus [12] = assay: Antiviral activity against HCV 1a/2a (H77/JFH1) infected in human Huh7.5 cells assessed as reduction of virus induced cytopathic effect by luciferase reporter assay; assay type: functional, organism-based, Hepacivirus hominis; details: Huh-7
Hepatitis C virus [13] = assay: Antiviral activity against HCV 1b Con1 infected in human Huh7.5 cells assessed as reduction of virus induced cytopathic effect by qRT-PCR; assay type: functional, cell-based, Hepacivirus hominis; details: genotype 1b Con1, Huh-7
[14] = Selectivity index, ratio of CC50 for human HuH7.5 cells to EC50 for HCV 2a/2a (J6/JFH1); parameters: species or system Huh-7
[15] = Cytotoxicity against human HuH7 cells assessed as cell viability by cytoTox1 cell proliferation assay; assay type: cell-based, Huh-7
[16] = Selectivity index, ratio of CC50 for human HuH7 cells to EC50 for HCV 1a/2a (H77/JFH1); parameters: species or system Huh-7
[17] = Selectivity index, ratio of CC50 for human HuH7 cells to EC50 for Hepatitis C virus 1a H77; assay type: toxicity, cell-based, Huh-7; details: read-out: Ratio CC50/EC50
Hepatitis C virus [18] = assay: Antiviral activity against HCV 1b/2a (Con-1/JFH-1) infected in human Huh7.5 cells assessed as reduction of virus induced cytopathic effect by luciferase reporter assay; assay type: functional, organism-based, Hepacivirus hominis; details: Huh-7
[19] = Cytotoxicity against human Huh7.5 cells assessed as cell viability by cytoTox1 cell proliferation assay; assay type: cell-based, Huh-7.5
[20] = Selectivity index, ratio of CC50 for human HuH7 cells to EC50 for Hepatitis C virus 1b CON1; assay type: toxicity, cell-based, Huh-7; details: read-out: Ratio CC50/EC50
Hepatitis C virus [21] = assay: Antiviral activity against HCV 2a/2a (J6/JFH1) infected in human Huh7.5 cells assessed as reduction of virus induced cytopathic effect by luciferase reporter assay; assay type: functional, organism-based, Hepacivirus hominis; details: Huh-7
[22] = Selectivity index, ratio of CC50 for human HuH7.5 cells to EC50 for HCV 1b/2a (Con-1/JFH-1); parameters: species or system Huh-7
Hepatitis C virus [23] = assay: Antiviral activity against HCV 2a (JFH1) infected in human Huh7 cells assessed as reduction of virus induced cytopathic effect by luciferase reporter assay; assay type: functional, organism-based, Hepacivirus hominis; details: Huh-7

| Structure (SMILES) | EC50 [1] | selectivity ratio [2] | selectivity ratio [3] | EC50 [4] | CC50 [5] | CC50 [6] | CC50 [7] | selectivity ratio [8] | EC50 (Hepatitis C virus [9]) | EC90 (Hepatitis C virus [9]) | further results |
| --- | --- | --- | --- | --- | --- | --- | --- | --- | --- | --- | --- |
| CCOC(=O)C1=C(C)N(c2ccccc2)/C(=C2\S/C(=N/c3nc(-c4c(C)n(C)n(-c5ccccc5)c4=O)cs3)N(c3ccccc3)C2=O)S1 | 68 µg/mL (≈ 96.2 µM) | > 1.5 | > 1.1 | 92 µg/mL (≈ 130 µM) | > 100 µg/mL | > 100 µg/mL | – | – | – | – | – |
| Cc1c(-c2csc(/N=C3/S/C(=C4/SCC(=O)N4c4ccccc4)C(=O)N3c3ccccc3)n2)c(=O)n(-c2ccccc2)n1C | 23 µg/mL (≈ 36.1 µM) | > 4.2 | > 4.3 | 23 µg/mL (≈ 36.1 µM) | > 100 µg/mL | > 100 µg/mL | > 20 µM | > 2 | 12.7 µM | > 20 µM | – |
| CC(=O)C1=NN(c2ccccc2)/C(=C2\S/C(=N/c3nc(-c4c(C)n(C)n(-c5ccccc5)c4=O)cs3)N(c3ccccc3)C2=O)S1 | – | – | – | – | – | – | > 20 µM | > 36 | 0.56 µM | 1.81 µM | EC50 (Hepatitis C virus [10]): > 20 µM; EC90 (Hepatitis C virus [10]): > 20 µM; Ratio CC50/EC50 [11]: >1; EC50 (Hepatitis C virus [12]): 13.6 µM; EC90 (Hepatitis C virus [12]): > 20 µM; EC50 (Hepatitis C virus [13]): 0.46 µM; EC90 (Hepatitis C virus [13]): > 20 µM; Ratio CC50/EC50 [14]: >13; CC50 [15]: > 20 µM; Ratio CC50/EC50 [16]: >1; selectivity ratio [17]: 1; EC50 (Hepatitis C virus [18]): 1.09 µM; EC90 (Hepatitis C virus [18]): > 20 µM; CC50 [19]: > 20 µM; selectivity ratio [20]: > 43; EC50 (Hepatitis C virus [21]): 1.54 µM; EC90 (Hepatitis C virus [21]): > 20 µM; Ratio CC50/EC50 [22]: >18; EC50 (Hepatitis C virus [23]): 17.7 µM; EC90 (Hepatitis C virus [23]): > 20 µM |
| CC(=O)C1=NN(c2ccc(Cl)cc2)/C(=C2\S/C(=N/c3nc(-c4c(C)n(C)n(-c5ccccc5)c4=O)cs3)N(c3ccccc3)C2=O)S1 | – | – | – | – | – | – | > 20 µM | > 18 | 1.12 µM | 14.4 µM | – |
| CC(=O)C1=NN(c2ccc(C)cc2)/C(=C2\S/C(=N/c3nc(-c4c(C)n(C)n(-c5ccccc5)c4=O)cs3)N(c3ccccc3)C2=O)S1 | – | – | – | – | – | – | > 20 µM | > 19 | 1.04 µM | 4.76 µM | – |
| COc1ccc(N2N=C(C(C)=O)S/C2=C2/S/C(=N/c3nc(-c4c(C)n(C)n(-c5ccccc5)c4=O)cs3)N(c3ccccc3)C2=O)cc1 | – | – | – | – | – | – | > 20 µM | > 7 | 2.8 µM | 15.5 µM | – |
| NC(=O)c1ncn([C@@H]2O[C@H](CO)[C@@H](O)[C@H]2O)n1 [RIBAVIRIN] | 24 µg/mL (≈ 98.3 µM) | > 32 | > 2 | 16 µg/mL (≈ 65.5 µM) | > 320 µg/mL | > 320 µg/mL | – | – | – | – | – |
